# Results taken from US20080281105A1, “Novel Quinolinium Salts and Derivatives” (IMMUSOL INCORPORATED, priority 2005, published 2008).
# pEC50: −log10 of the molar value.
# Columns and labels:
# A549 cancer cells [1] = test: A549 NSCL xenograft model, combination with 2DG; assay type: in vivo, mice; details: 2DG 300 mg/kg, Example 36 2 mg/kg, i.p. daily (6 times per week); Example 36 alone p<0.05 at day 24 and 27; combination p<0.05 at day 13-27; FIG. 7
# Text: Because the compounds of the invention may be more toxic to cancer cells deprived of glucose or treated with 2DG in vitro, the combination of 2DG with such compounds should have increased anti-tumor efficacy in vivo as compared with either agent alone. Accordingly, the effect of a combination therapy of the compound of Example 36 and 2DG using A549 NSCL xenograft model was examined.
# Female athymic nude mice (nu/nu) (4-6 weeks old) were inoculated (s.c.) with 5×10^6 A549 cancer cells in PBS on the flanking site. After the tumors reached an average size ˜100 mm^3, the animals were divided into four treatment groups—0.9% NaCl (control), 2DG at 300 mg/kg, the compound of Example 36 at 2 mg/kg, and a combination of 2DG (300 mg/kg) and the compound of Example 36 (2 mg/kg). All the treatments were delivered by intraperitoneal injection daily (6 times per week). Tumor size and body weight were measured twice per week. Tumor volume was calculated using the formula TV=length×width×width/2.
# [2] = system: Panc-1, HCT-116, Pc3M/N, HEPG2, ASPC1, or H460 cells; test: Reduction of viable cell growth in glucose deprived media (liquid culture, alamarBlue); assay type: cell-based; details: for pEC50: concentration giving at least 50% reduction of viable cell growth
# Lewis lung cancer cells [3] = test: Mouse LLC model, combination with 2DG; assay type: in vivo, mice; details: Example 36 2 mg/kg, 2DG 300 mg/kg, i.p. 6 times per week; p<0.05; FIG. 8
# Experimental: (§1) More specifically, female C57BL mice (4-6 weeks old) were inoculated (s.c.) with 5×10^5 Lewis lung cancer cells in PBS on the flanking site. Animals were randomly divided into treatment and control groups (n=8) based on tumor size when average tumor size reached 100 mm^3. Animals in the treatment groups received the compound of Example 36 daily at 2 mg/kg and 2DG at 300 mg/kg via intraperitoneal dosing, 6 times per week respectively. Tumor size and body weight were measured twice per week. Tumor volume was calculated using the formula TV=length×width×width/2.
# Lewis lung cancer cells [4] = test: Mouse Lewis lung cancer (LLC) xenograft model; assay type: in vivo, mice; details: 2 mg/kg intraperitoneal, 6 times per week; day 15; p<0.05; FIG. 6
# Experimental: as §1, with “Using the mouse Lewis lung cancer (LLC) xenograft model, female” for “More specifically, female”, “treatment group” for “treatment groups”, “36 (also designated IMS2143) or the compound of Example 47” for “36”, “2” for “2 mg/kg and 2DG at 300”, “respectively. The control group was injected with 0.9% NaCl.” for “respectively.”
# A549 cancer cells [5] = test: A549 xenograft model, combination with taxol; assay type: in vivo, mice; details: paclitaxel 20 mg/kg once per 4 days i.p.; IMS2155 2 mg/kg daily i.p.; p<0.05 for monotherapies; FIG. 5
# Experimental: Combination treatment with taxol and the compound of Example 47 (also designated IMS2155) in the A549 (NCLC) model was tested. Taxol is one of standards of care for lung cancer.
# Female athymic nude mice (nu/nu) (4-6 weeks old) were inoculated (s.c.) with 5×10^6 A549 cancer cells in PBS on the flanking site. The animals were divided into four treatment groups when the average tumor size reached 150 mm^3: group 1 (PBS daily i.p. dosing), group 2 (20 mg/kg paclitaxel once per 4 days i.p. dosing), group 3 (2 mg/kg IMS2155 daily i.p. dosing) and group 4 (20 mg/kg paclitaxel once per 4 days i.p. dosing and 2 mg/kg IMS2155 daily i.p. dosing). The tumor size and body weight was measured twice per week. Tumor volume was calculated using the formula TV=length×width×width/2.
# It is noteworthy that IMS2155 worked almost as well as Taxol at the MTD dose (20 mg/kg for this strain of mice).
# H460 NSCL cells = test: Non-small cell lung cancer (NSCL) xenograft early stage model in nude mice; assay type: in vivo
# Experimental: The anti-tumor activity of the compound of Example 56 was tested in a nude mice xenograft early stage model. Female athymic nude (nu/nu) mice were inoculated with H460 NSCL cells and divided into two groups. The first group was dosed with vehicle (control), and the second group was dosed i. p. with the compound of Example 56 on a daily basis (6 times/week).
# [6] = system: eukaryotic translation system; details: reported by Malina; cited from earlier work
# PC3 prostate cells = test: PC3 medium-staged prostate xenograft model, combination therapy; assay type: in vivo, mice; details: Example 1 P.O. daily, doxorubicin or paclitaxel i.p.; tumors around 100 mm^3 at start; FIG. 3 and 4
# Experimental: The anti-tumor activity of compounds of the invention in combination with at least one additional chemotherapeutic agent was also tested in a nude mice xenograft model.
# (§2) A. Female athymic nude (nu/nu) mice were inoculated with PC3 prostate cells. When tumor volumes reached around 100 mm^3, the animals were divided into four groups with average size of tumors similar among the four groups. The first group was dosed with vehicle (as control), the second group with the compound of Example 1 (P.O. daily), the third with doxorubicin (i.p.) and the fourth with the combination (i.p. Dox/p.o. compound of Example 1).
# as §2, with “B.” for “A.”, “paclitaxel (taxol)” for “doxorubicin”, “(ip. taxol/p.o.” for “(i.p. Dox/p.o.”
# transformed cell growth = details: reported in the literature; cited from earlier work
smiles,measurement,setting,value
"O=CC[C@@H](O)[C@H](O)[C@H](O)CO [Example 2DG, 2-deoxyglucose, reference compound]",A549 tumor growth,A549 cancer cells [1],no response
COCCn1c(C)c(C=O)c(/C=C/c2ccc3cc(N(C)C)ccc3[n+]2C)c1C [Example 25],pEC50,[2],> 6.00
Cc1cc(/C=C/c2ccc3cc(N4CCOCC4)ccc3[n+]2C)c(C)n1-c1ccccc1 [Example 26],pEC50,[2],6.00
CCCCn1c(C)c(C=O)c(/C=C/c2ccc3cc(N4CCOCC4)ccc3[n+]2C)c1C [Example 27],pEC50,[2],< 6.00
Cc1c(C=O)c(/C=C/c2ccc3cc(N(C)C)ccc3[n+]2C)c(C)n1-c1ccccc1 [Example 28],pEC50,[2],> 6.00
Cc1cc(/C=C/c2ccc3cc(N4CCCCC4)ccc3[n+]2C)c(C)n1-c1ccccc1 [Example 29],pEC50,[2],6.00
Cc1cc(/C=C/c2ccc3cc(N4CCC(C)CC4)ccc3[n+]2C)c(C)n1-c1ccccc1 [Example 30],pEC50,[2],6.00
CN(C)c1ccc2c(ccc(/C=C/c3cccc(-c4cccs4)n3)[n+]2C)c1 [Example 31],pEC50,[2],6.00
CN(C)c1ccc2c(ccc(/C=C/c3ccc(-c4ccccc4)s3)[n+]2C)c1 [Example 32],pEC50,[2],6.00
Cc1cc(/C=C/c2ccc3cc(N(C)C)ccc3[n+]2C)oc1C [Example 33],pEC50,[2],6.00
CN(C)c1ccc2c(ccc(/C=C/c3cccc(Oc4ccccc4)c3)[n+]2C)c1 [Example 34],pEC50,[2],6.00
CN(C)c1ccc2c(ccc(/C=C/c3ccc(Oc4ccccc4)cc3)[n+]2C)c1 [Example 35],pEC50,[2],> 6.00
CCCCOc1ccc(/C=C/c2ccc3cc(N(C)C)ccc3[n+]2C)cc1.O=S(=O)([O-])C(F)(F)F [Example 36],LLC tumor growth as compared with 2DG alone or control,Lewis lung cancer cells [3],significantly inhibited tumor growth
same,LLC tumor growth,Lewis lung cancer cells [4],significantly suppressed tumor growth
same,A549 tumor growth,A549 cancer cells [1],significantly inhibited tumor growth
same,pEC50,[2],> 6.00
CN(C)c1ccc2c(ccc(/C=C/c3ccc(-c4cc(C(F)(F)F)nn4C)s3)[n+]2C)c1 [Example 37],pEC50,[2],6.00
CN(C)c1ccc2c(ccc(/C=C/c3ccc(-c4nn(C)cc4C(F)(F)F)s3)[n+]2C)c1 [Example 38],pEC50,[2],6.00
CCCCc1nc(/C=C/c2ccc3cc(N(C)C)ccc3[n+]2C)c(Cl)[nH]1 [Example 39],pEC50,[2],< 6.00
CN(C)c1ccc2c(ccc(/C=C/c3coc4ccccc4c3=O)[n+]2C)c1 [Example 40],pEC50,[2],6.00
CN(C)c1ccc2c(ccc(/C=C/c3cn(S(=O)(=O)c4ccccc4)c4ccccc34)[n+]2C)c1 [Example 41],pEC50,[2],6.00
CN(C)c1ccc2c(ccc(/C=C/c3ccc4oc(C(=O)c5ccc(Cl)cc5)cc4c3)[n+]2C)c1 [Example 42],pEC50,[2],6.00
CN(C)c1ccc2c(ccc(/C=C/c3ccc(OCc4ccsc4C#N)cc3)[n+]2C)c1 [Example 43],pEC50,[2],> 6.00
CN(C)c1ccc2c(ccc(/C=C/c3ccc(OC(F)(F)F)cc3)[n+]2C)c1 [Example 44],pEC50,[2],6.00
COc1cc(/C=C/c2ccc3cc(N(C)C)ccc3[n+]2C)ccc1OCc1ccccc1 [Example 45],pEC50,[2],> 6.00
CN(C)c1ccc2c(ccc(/C=C/c3ccc(OCc4ccccc4)cc3)[n+]2C)c1 [Example 46],pEC50,[2],> 6.00
Cc1cc(/C=C/c2ccc3cc(N(C)C)ccc3[n+]2C)cc(C)c1OCc1ccccc1.O=S(=O)([O-])C(F)(F)F [Example 47],LLC tumor growth,Lewis lung cancer cells [4],significantly suppressed tumor growth
same,A549 tumor size,A549 cancer cells [5],significant reduction in tumor size
same,pEC50,[2],> 6.00
Cc1c(/C=C/c2ccc3cc(N(C)C)ccc3[n+]2C)cnn1-c1ccccc1 [Example 48],pEC50,[2],< 6.00
CN(C)c1ccc2c(ccc(/C=C/c3sccc3Oc3ccccc3)[n+]2C)c1 [Example 49],pEC50,[2],> 6.00
CN(C)c1ccc2c(ccc(/C=C/c3ccc(C#Cc4ccccc4)s3)[n+]2C)c1 [Example 50],pEC50,[2],> 6.00
CCn1c2ccccc2c2cc(/C=C/c3ccc4cc(N(C)C)ccc4[n+]3C)ccc21 [Example 51],pEC50,[2],> 6.00
CN(C)c1ccc2c(ccc(/C=C/c3cc(C(=O)c4ccc(F)cc4)cn3C)[n+]2C)c1.O=S(=O)([O-])C(F)(F)F [Example 52],reduction of viable cell growth,[2]; at the concentration stated in Table 3,inactive
same,pEC50,[2],< 6.00
CCOC(=O)c1c(/C=C/c2ccc3cc(N(C)C)ccc3[n+]2C)c(C)n(C2CC2)c1C [Example 53],pEC50,[2],> 6.00
CCOC(=O)c1c(/C=C/c2ccc3cc(N(C)C)ccc3[n+]2C)c(C)n(-c2ccccc2)c1C [Example 54],pEC50,[2],> 6.00
CCOC(=O)c1c(/C=C/c2ccc3cc(N(C)C)ccc3[n+]2C)c(C)n(Cc2cccs2)c1C [Example 55],pEC50,[2],> 6.00
CCCCn1c(C)c(C=O)c(/C=C/c2ccc3cc(N(C)C)ccc3[n+]2C)c1C.CS(=O)(=O)[O-] [Example 56],Result: Tumor reduction,"H460 NSCL cells; NSCL, H460 xenograft, I.p.",Tumor reduction (41%)
same,H460 tumor size as compared to control,"H460 NSCL cells; dosed i.p. daily (6 times/week), p<0.05, FIG. 2",significant reduction
same,toxicity,"H460 NSCL cells; nude mice, H460 xenograft, i.p. daily (6 times/week)",no apparent toxicity
same,pEC50,[2],> 6.00
CCCCn1c(C)c(C=O)c(/C=C/c2ccc3cc(C)ccc3[n+]2C)c1C [Example 57],pEC50,[2],> 6.00
CCCCn1c(C)c(C=O)c(/C=C/c2ccc3cc(Cl)ccc3[n+]2C)c1C [Example 58],pEC50,[2],> 6.00
"Cc1cc(C=Cc2ccc3cc(OC(N)=O)ccc3[n+]2C)c(O)c2ncccc12 [NSC 86372, 6-(aminocarbonyloxy)-2-(2-(8-hydroxy-5-methylquinolin-7-yl)vinyl)-1-methylquinolinium]",protein synthesis,[6],inhibited protein synthesis
"CC(=O)O[C@H]1C(=O)[C@@]2(C)[C@H]([C@H](OC(=O)c3ccccc3)[C@]3(O)C[C@H](OC(=O)[C@H](O)[C@@H](NC(=O)c4ccccc4)c4ccccc4)C(C)=C1C3(C)C)[C@]1(OC(C)=O)CO[C@@H]1C[C@@H]2O [Taxol, paclitaxel, reference compound]",growth of PC3 medium-staged xenograft tumors,PC3 prostate cells,reduced tumor size significantly
same,A549 tumor size,A549 cancer cells [5],significant reduction in tumor size
CC[n+]1c(C=Cc2ccc(N(C)C)cc2)ccc2ccccc21 [quinaldine red],transformed cell growth,transformed cell growth,inhibitor of transformed cell growth
